Legend:
[1] = system: HT-29 cells; test: Necroptosis induced by TNFα, SMAC mimetic and z-VAD-fmk; type: cell-based; settings: SMAC mimetic
Source text: Inhibition was shown by cell survival, assessed by CellTiter-Glo ATP luminescence, and membrane permeabilization, assessed by uptake of the membrane-impermeable dye SYTOX Green.

[2] = system: LPS-induced sepsis in C57BL/6 mice; test: LPS-induced sepsis in mice, survival; type: in vivo, mouse
Method: Mice. 8-week-old female C57BL/6 wild-type mice were purchased from The Jackson Laboratory and maintained at the SPF facility at Harvard Medical School. All mouse experiments were conducted using protocols approved by the Animal Care and Use Committees of Boston Children's Hospital and Harvard Medical School.
Drug administration and LPS-induced sepsis in mice. […] In the indicated group of mice in FIG. 5h, copper gluconate (0.15 mg/kg) was administered intraperitoneally 6 hr prior to the first injection of DSF. Sepsis was induced in C57BL/6 mice (8-10 weeks old) by intraperitoneal injection of LPS (E. coli O111:B4) at indicated concentrations. In some experiments, mice were treated with copper gluconate (0.15 mg/kg) or vehicle by intraperitoneal injection 5 hr before LPS challenge and then given DSF (50 mg/kg) intraperitoneally dissolved in sesame oil or vehicle 4 hr before and just before LPS challenge (15 mg/kg intraperitoneally). Peritoneal cells were collected by rinsing the peritoneal cavity with ice cold PBS containing 3% FBS 6 hr after LPS challenge. To measure cytokines, blood samples were collected by tail vein bleed 12 hr post LPS challenge and allowed to clot at room temperature. Sera obtained after centrifugation at 2,000×g for 10 min were analysed for inflammatory cytokines by ELISA.
Cell death was determined by CytoTox96 assay. […] Statistical analysis was performed using the log-rank test (In FIGS. 14, 16, 17, mice/group). […] Serum was obtained 12 hrs post LPS challenge. Shown are mean±s.d. […] Statistical analysis was performed using the log-rank test (8 mice/group).

[3] = target: C38A GSDMD (Homo sapiens, UniProt P57764, C38A); test: Liposome leakage assay, C38A GSDMD plus caspase-11; type: biochemical
Sequence of C38A GSDMD (P57764 whole entry C38A): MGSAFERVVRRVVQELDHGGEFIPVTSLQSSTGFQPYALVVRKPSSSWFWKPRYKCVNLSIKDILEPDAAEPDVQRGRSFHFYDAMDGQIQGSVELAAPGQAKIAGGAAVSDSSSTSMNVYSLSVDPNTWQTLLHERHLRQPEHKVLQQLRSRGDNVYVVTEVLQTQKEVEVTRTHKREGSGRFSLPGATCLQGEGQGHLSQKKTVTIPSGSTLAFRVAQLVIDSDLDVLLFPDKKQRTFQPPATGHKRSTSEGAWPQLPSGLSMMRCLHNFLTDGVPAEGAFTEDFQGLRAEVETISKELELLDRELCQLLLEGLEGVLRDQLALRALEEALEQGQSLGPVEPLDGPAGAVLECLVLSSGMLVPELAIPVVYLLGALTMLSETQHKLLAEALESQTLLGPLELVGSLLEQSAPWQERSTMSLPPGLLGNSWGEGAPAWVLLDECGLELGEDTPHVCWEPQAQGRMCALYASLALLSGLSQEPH

[4] = target: T1, human GSDMD-3C (Homo sapiens, UniProt P57764); test: Pore reconstitution on nanodiscs, negative staining EM
T1 sequence (P57764 1-271 limits assumed): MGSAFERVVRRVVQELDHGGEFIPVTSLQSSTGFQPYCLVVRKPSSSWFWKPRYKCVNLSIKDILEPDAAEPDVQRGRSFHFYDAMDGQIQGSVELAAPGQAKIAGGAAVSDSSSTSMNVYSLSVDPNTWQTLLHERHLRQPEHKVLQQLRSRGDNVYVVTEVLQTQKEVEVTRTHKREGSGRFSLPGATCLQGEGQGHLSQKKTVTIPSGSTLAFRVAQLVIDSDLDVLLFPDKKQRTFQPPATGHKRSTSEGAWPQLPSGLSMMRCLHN
Method: To form GSDMD pores on the nanodiscs, purified human GSDMD-3C was incubated with 3C protease in the presence of nanodiscs for 6 hrs on ice. […] For negative staining electron microscopy, a 5-μl sample was placed onto a glow-discharged carbon-coated copper grid (Electron Microscopy Sciences), washed twice with Buffer A, stained with 1% uranyl formate for 1 min, and air-dried. The grids were imaged on the Tecnai G^2 Spirit BioTWIN electron microscope and recorded with an AMT 2 k CCD camera (Harvard Medical School Electron Microscopy Facility).
3C protease cleavage of the engineered GSDMD-3C liberates an active NT fragment.

[5] = system: mouse iBMDMs; test: Non-canonical inflammasome pyroptosis, iBMDMs with LPS electroporation; type: cell-based
Method: Cell lines and treatments: THP-1 cells and HEK293T cells (obtained from ATCC) were grown in RPMI with 10% heat-inactivated fetal bovine serum, supplemented with 100 U/ml penicillin G, 100 μg/ml streptomycin sulfate, 6 mM HEPES, 1.6 mM L-glutamine, and 50 μM 2ME. C57BL/6 mouse iBMDM cells were kindly provided by J. Kagan (Boston Children's Hospital) and cultured in DMEM with the same supplements. Cells were verified to be free of mycoplasma contamination. Transient transfection of HEK293T cells was performed using Lipofectamine 2000 (Invitrogen) according to the manufacturer's instructions. iBMDM cells were transfected by nucleofection using the Amaxa Nucleofector kit (VPA-1009). […] To examine IκBα. phosphorylation and degradation as well as IL-1β induction, PMA-differentiated THP-1 cells were stimulated with LPS (1 μg/ml) for 0.5, 1 and 4 hrs, respectively. For noncanoical inflammasome activation, 1 million iBMDM cells were electroporated with 1 μg ultra LPS.
Cytotoxicity and cell viability assays: cell death and cell viability were determined by the lactate dehydrogenase release assay using the CytoTox 96 Non-Radioactive Cytotoxicity Assay kit (Promega) and by measuring ATP levels using the CellTiter-Glo Luminescent Cell Viability Assay (Promega), respectively, according to the manufacturer's instructions. Luminescence and absorbance were measured on a BioTek Synergy 2 plate reader.
In FIGS. 4, 6, and 8, PMA-differentiated LPS-primed human THP-1 were pre-treated with indicated concentrations of each compound for 1 h before adding nigericin or medium. The number of surviving cells was determined by CellTiter-Glo assay (FIGS. 4 and 6) and IL-1β in culture supernatants was assessed by ELISA (FIG. 8) 2 hrs later. In FIGS. 5, 7, and 9, mouse iBMDMs were pre-treated with each test compound for 1 hr before electroporation with PBS or LPS. The number of surviving cells was determined by CellTiter-Glo assay (FIGS. 5 and 7) and IL-1β in culture supernatants was assessed by ELISA (FIG. 9) 2.5 hrs later. In FIGS. 8 and 9, 40 μM concentration of test compounds were added.

[6] = target: T1, human GSDMD-3C; test: Liposome leakage assay, GSDMD-3C plus 3C protease; type: biochemical; parameters: Human GSDMD-3C and mouse GSDMA3-3C mutants were constructed by QuikChange Mutagenesis (Agilent Technologies); fused on or other part: His6-MBP tag, removed by TEV before use; The engineered 3C site is cut in the well by 3C protease
Method: Liposome leakage assay: fluorogenic liposome leakage assay detects leakage of Tb^3+ from Tb^3+-loaded liposomes incubated with GSDMD and caspase-11 (See References 7 and 9). Liposome leakage was detected by an increase in fluorescence when Tb^3+ bound to dipicolinic acid (DPA) in Buffer C. […] The fluorescence intensity of the well was measured at 545 nm with an excitation of 276 nm 1 hr after addition of caspase-11 using a Perkin Elmer EnVision plate reader. The final percent inhibition was calculated as [(fluorescencetest compound−fluorescencenegative control)/(fluorescencepositive control−fluorescencenegative control)]×100, where a well with GSDMD without the test compound was used as positive control, and a well without caspase-11 was used as negative control.
[LC retention time. […] (b).
To determine the relative contribution of caspase-11 inhibition versus GSDMD inhibition by disulfiram in pore formation, the caspase cleavage site in GSDMD was replaced with the rhinovirus 3C protease site (GSDMD-3C) and the 3C protease was used instead of caspase-11 in the liposome leakage assay.

| SMILES | necroptosis [1] | survival ([2]; LPS 15 mg/kg, 50 mg/kg ip 24 and 4 hrs before, 96 hrs) | survival ([2]; LPS 25 mg/kg, 50 mg/kg ip 24 and 4 hrs before) | survival ([2]; LPS 25 mg/kg, 50 mg/kg ip post LPS, with copper gluconate 0.15 mg/kg) | survival ([2]; LPS 25 mg/kg, 50 mg/kg ip post LPS, without copper) | survival ([2]; LPS 50 mg/kg, 50 mg/kg ip 24 and 4 hrs before) | survival of Casp11−/− mice ([2]; LPS challenge) | survival of Gsdmd−/− mice ([2]; LPS challenge) | survival of Casp1−/− mice ([2]; lethal LPS challenge) | IC50 [3] [nM] | effect on already assembled pores ([4]; added after pore formation) | pore formation on nanodiscs ([4]; pretreated before adding to nanodiscs) | inhibition of non-canonical inflammasome pyroptosis [5] | inhibition of leakage by GSDMD-3C plus 3C protease versus GSDMD plus caspase-11 [6] |
| --- | --- | --- | --- | --- | --- | --- | --- | --- | --- | --- | --- | --- | --- | --- |
| CCN(CC)C(=S)SSC(=S)N(CC)CC [C-23, Tetraethylthiuram disulfide] | had no effect on necroptosis | all the disulfiram-treated mice survived | 5 of 8 | 2 of 8 | died | 1 of 8 | did not significantly affect the survival | did not significantly affect the survival | protected | ~300 | did not disrupt already assembled pores | completely blocked |  |  |
| Cc1ccc(S(=O)(=O)/C=C/C#N)cc1 [Bay 11-7082] |  |  |  |  |  |  |  |  |  |  |  |  | less active than disulfiram | substantially less able to inhibit leakage |
